The results in this text go back to patent US20140087991A1, “PEPTIDE PRODRUGS” (The Johns Hopkins University, priority 2006, published 2014).

Ends that are not written are not given here. * marks the point of attachment. Mu = morpholinocarbonyl, O=C(N1CCOCC1)*

One may read the Km as the substrate concentration at which the rate is half of its maximum.

Experiment [1] concerns human MDA-MB231 breast cancer xenografts. In words: Antitumor effect in breast cancer xenografts. It is filed as in vivo, nude mice. The following applies: FIG. 6 legend, values not given.
In a further experiment the target is T1, FAP (Homo sapiens, UniProt Q12884).
T1 construct: the extracellular domain of FAP was cloned with a His-6 tag; made in house
T1 sequence (Q12884 26-760 limits assumed): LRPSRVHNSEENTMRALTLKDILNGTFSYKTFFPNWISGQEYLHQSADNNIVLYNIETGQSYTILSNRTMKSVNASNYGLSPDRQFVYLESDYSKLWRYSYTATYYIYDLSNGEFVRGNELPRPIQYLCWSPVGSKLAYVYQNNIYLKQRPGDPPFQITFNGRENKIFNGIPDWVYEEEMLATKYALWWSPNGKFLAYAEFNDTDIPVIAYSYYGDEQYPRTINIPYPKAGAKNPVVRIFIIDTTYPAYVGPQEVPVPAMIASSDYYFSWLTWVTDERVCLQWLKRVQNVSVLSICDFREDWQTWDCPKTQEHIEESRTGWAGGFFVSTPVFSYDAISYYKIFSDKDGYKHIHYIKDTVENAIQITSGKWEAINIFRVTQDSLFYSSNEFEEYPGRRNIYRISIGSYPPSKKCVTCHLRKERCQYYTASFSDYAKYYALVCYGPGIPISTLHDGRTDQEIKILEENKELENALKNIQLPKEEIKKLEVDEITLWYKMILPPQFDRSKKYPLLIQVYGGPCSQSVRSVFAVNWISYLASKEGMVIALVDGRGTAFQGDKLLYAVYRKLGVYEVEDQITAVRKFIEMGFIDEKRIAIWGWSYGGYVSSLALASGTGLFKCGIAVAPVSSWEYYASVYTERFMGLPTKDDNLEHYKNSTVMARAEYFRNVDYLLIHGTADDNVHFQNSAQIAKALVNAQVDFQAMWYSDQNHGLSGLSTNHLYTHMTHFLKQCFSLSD
The experiment in a line: Digestion of human collagen I and recombinant gelatins with FAP (SDS-PAGE, MALDI). It is filed as biochemical. Conditions: SDS PAGE and MALDI spectra. The protocol:
Human collagen I (Becton Dickinson, Franklin Lakes, N.J.) and recombinant human gelatins of 100 KDa and 8.5 KDa (Fibrogen, San Francisco, Calif.) were dissolved in reaction buffer to a final concentration of 100-300 μg/ml. 0.5-1 μg of FAP was added per 100 μgs of protein substrate. Digestion was done for 4-6 hrs at 37° C. As a positive control trypsin digestion was used. As a negative control, protein solutions were incubated either with BSA or buffer only. Peptide fragments of a size <30 KDa were purified using 30 KDa Microcon spin filter (Millipore, Billerica, Mass.).
In an effort to elucidate the substrate specificity of FAP, we examined FAP digests of unlabeled human Collagen I using matrix assisted laser desorption ionization (MALDI) time of flight mass spectrometry. Digestion reactions were performed at a substrate to protease mass ratio of 200:1 using recombinant FAP or modified trypsin as a control. Two negative controls of Collagen alone and FAP alone were also included to identify any peptides due to autolysis/degradation of these proteins. […]
As Collagen I and Gelatin are currently the only known protein substrates for FAP, we developed an alternative method to identify FAP-selective cleavage sites within these proteins. […] The masses of fragments <3 KDa were purified for MALDI spectra and again analyzed using the FindPept tool. […]

The next experiment has as its target T2, His-tagged FAP (Homo sapiens, UniProt Q12884).
T2 construct: the extracellular domain of FAP was cloned with a His-6 tag; made in house
T2 sequence (Q12884 26-760 limits assumed): T1 sequence (Q12884 26-760 limits assumed)
The experiment in a line: FAP hydrolysis of MCA/DNP fluorescence quenched peptide substrates. It is filed as biochemical. The method, then:
Quenched substrates were prepared by using the MCA/DNP fluorophore/quencher pair. Synthesis of peptides was done using standard Fmoc solid phase coupling on NovaTag™ Dnp resin with a substitution level of 0.4 mmole/g (Novabiochem, San Diego, Calif.). N-terminal capping was done twice overnight with N-(7-methoxycoumarin-4-acetyloxy)succinimide (MCA-Osu) and 1-Hydroxybenzotriazole (HOBt) in N-Methyl 2 Pyrrolidone (NMP). Peptides were cleaved with 95% TFA, 2.5% TIS and 2.5% water. The purity and mass of each quenched peptide was confirmed by Reversed Phase-HPLC and MALDI-TOF analysis.
Quenched peptide substrates were weighed and dissolved in DMSO to obtain a final concentration of 50 mM and were stored at −20° C. until later use. Dilutions (e.g. 200 μM, 100 μM, 50 μM, 25 μM) were prepared in duplicates in the reaction buffer. His-tagged FAP was added to a final concentration of 5 nM. Release of free MCA was measured at excitation 355 nm and emission 460 nm in a 96-well fluorescence plate reader. Controls consisted of substrates in buffer±BSA.
On the basis of the 8.5 kDa gelatin cleavage map a series of fluorescence quenched substrates were prepared (colored sequences in Table 3) by using the Methoxycoumarin (MCA)/Dinitrophenyl (DNP) FRET combination (52). […]

The subject of experiment [2] is control cells transfected with PSMA. The experiment in a line: Hydrolysis of quenched peptides by control cells transfected with PSMA. Type of experiment: cell-based, human. The following applies: 50 μM. The protocol: (§1) Subsequently, one of the MDA-MB-231 clones was used to evaluate FAP activity in vitro. In this assay cells were grown in serum containing media to 70% confluency followed by addition of fluorescence quenched peptides into the media at concentration of 50 μM. As a control cell lines transfected with the carboxypeptidase PSMA using the same vector system were used. Cells were incubated with three different FAP substrates, FIG. 18.

The test system of experiment [3] is FAP-transfected MDA-MB-231 cells. The experiment in a line: Hydrolysis of quenched peptides by FAP-transfected MDA-MB-231 cells. Type of experiment: cell-based, human. The following applies: 50 μM in serum containing media.
Source text: Human breast cancer cell lines MCF-7 and MDA-MB-231 were selected for transfection because the cells were negative for FAP when grown under standard culture conditions (25). Details of transfection methodology are described in methods section of Specific Aim 2 below. Briefly, a 2.2 kb PCR fragment was purified by gel electrophoresis, digested with NheI and cloned into bicistronic pIRES vector (kindly provided by Dr. Ben Park, The Johns Hopkins University) previously digested with Nhe 1. Final construct was designated as pFAPIRES. Sequencing primers were designed for the entire length of the gene and were confirmed to be correct. The cells were transfected using Fugene 6 (Roche). Control transfections were done on the same lines with the empty IRES vector. Cells were characterized for production of FAP by Flow Cytometry (FIG. 17A-FIG. 17D).
as §1

As for “FAP activated prodrug: FAP selective peptide Mu-SGEAGPA (Mu = morpholinocarbonyl) coupled to 12 ADT (12-aminododecanoyl thapsigargin) (not fully specified (C-terminus); printed as Mu-SGEAGPA; also: coupled to 12ADT (12-aminododecanoyl thapsigargin))”, in experiment [1], the antitumor effect result was “antitumor effect”.

Consider “human Collagen I: unlabeled human collagen I (Becton Dickinson)”, for which the “digestion by FAP” value in the experiment with FAP is “cleaved by FAP at certain specific sites”.

In the case of “VGPAGK (also: MCA/DNP quench labels) [tested as MCA/DNP fluorescence quenched substrate]”, the Michaelis-Menten constant (Km) in the experiment with His-tagged FAP (FAP hydrolysis of quenched substrate, Michaelis Menten) is about 50 µM. The “hydrolysis by FAP” value in the experiment with His-tagged FAP (substrate at 25 μM) is on record as “rapidly hydrolyzed”. For the same substance, the “hydrolysis by control media” value in experiment [2] was “relatively stable to hydrolysis”. The “hydrolysis by FAP-positive cells” value in experiment [3] is “appreciably hydrolyzed”.
